Marks after values point to notes of the source that are not given here.
Experiments:
[1] = irinotecan i.v. or orally administered; Ces2^–/– vs wild-type mice; data not shown
[2] = Tissue concentrations of capecitabine and its metabolites 2 h after oral capecitabine in CES2-modified mice; assay type: in vivo, mouse; details: oral capecitabine 500 mg/kg
Experimental: (§1) For capecitabine 2-h experiments, 6–7 female mice received oral capecitabine (500 mg/kg, 10 μL/g), and tail vein blood samples were collected at 0.125, 0.25, 0.5 and 1 h after drug administration. For the vinorelbine 4-h experiment, 6-7 male mice received vinorelbine intravenously (10 mg/kg, 5 μL/g) or orally (10 mg/kg, 10 μL/g) using a blunt-ended needle. Tail vein blood samples were collected at 0.125, 0.25, 0.5, 1 and 2 h after drug administration. […] At the last time point in each experiment (2 or 4 h), mice were anesthetized with 5% isoflurane and blood was collected by cardiac puncture. […] Plasma was isolated from the blood by centrifugation at 9000 × g for 6 min at 4 °C, and the plasma fraction was collected and stored at −30 °C until analysis.
(§2) Concentrations of capecitabine (and its metabolites) and vinorelbine (and its metabolite) in mouse plasma samples and organ homogenates were determined using two independent validated high-performance liquid chromatography-tandem mass spectrometry assays.
(§3) Pharmacokinetic parameters were calculated by non-compartmental methods using the PK solver software. […] Differences were considered statistically significant when P < 0.05. All data are presented as mean ± SD.

[3] = Plasma pharmacokinetics of capecitabine and its metabolites after oral capecitabine in CES2-modified mice; assay type: in vivo, mouse; details: oral capecitabine 500 mg/kg, plasma
Experimental: as §1, §2, §3

## CCc1c2c(nc3ccc(O)cc13)-c1cc3c(c(=O)n1C2)COC(=O)[C@]3(O)CC [SN-38]
[1]
  effect of mCes2 cluster knockout on plasma levels: no significant effect

## C[C@H]1O[C@@H](n2cc(F)c(=O)[nH]c2=O)[C@H](O)[C@@H]1O [5’-DFUR]
[2]; female Ces2^–/– mice
  CSI (small intestine tissue concentration): 5099 ± 1783 ng/g
  CSIC (small intestine contents concentration): 3905 ± 2357 ng/g
  Ccolon (colon concentration): 4754 ± 3040 ng/g
  Cliver (liver concentration): 3447 ± 1643 ng/g
  Colon concentration ratio (metabolite/capecitabine): 0.34 ± 0.06
  Liver concentration ratio (metabolite/capecitabine): 0.21 ± 0.09
  Small intestine concentration ratio (metabolite/capecitabine): 0.32 ± 0.13
  Small intestine contents concentration ratio (metabolite/capecitabine): 0.036 ± 0.016
[2]; female Ces2^–/–A mice
  CSI (small intestine tissue concentration): 4632 ± 1545 ng/g
  CSIC (small intestine contents concentration): 2689 ± 1092 ng/g
  Ccolon (colon concentration): 3692 ± 793 ng/g
  Cliver (liver concentration): 2628 ± 793 ng/g
  Colon concentration ratio (metabolite/capecitabine): 0.42 ± 0.06
  Liver concentration ratio (metabolite/capecitabine): 0.66 ± 0.37
  Small intestine concentration ratio (metabolite/capecitabine): 0.33 ± 0.12
  Small intestine contents concentration ratio (metabolite/capecitabine): 0.035 ± 0.025
[2]; female Ces2^–/–V mice
  CSI (small intestine tissue concentration): 3194 ± 1571 ng/g
  CSIC (small intestine contents concentration): 2248 ± 905 ng/g
  Ccolon (colon concentration): 5426 ± 27021.6 ng/g
  Cliver (liver concentration): 2635 ± 1118 ng/g
  Colon concentration ratio (metabolite/capecitabine): 1.2 ± 0.5^###^^^
  Liver concentration ratio (metabolite/capecitabine): 0.44 ± 0.12
  Small intestine concentration ratio (metabolite/capecitabine): 1.50 ± 0.56^###^^^
  Small intestine contents concentration ratio (metabolite/capecitabine): 0.060 ± 0.024
[2]; female wild-type mice
  CSI (small intestine tissue concentration): 2119 ± 460 ng/g
  CSIC (small intestine contents concentration): 1759 ± 941 ng/g
  Ccolon (colon concentration): 2694 ± 755 ng/g
  Cliver (liver concentration): 1750 ± 637 ng/g
  Colon concentration ratio (metabolite/capecitabine): 1.2 ± 0.3
  Liver concentration ratio (metabolite/capecitabine): 1.60 ± 0.96
  Small intestine concentration ratio (metabolite/capecitabine): 1.50 ± 0.62
  Small intestine contents concentration ratio (metabolite/capecitabine): 0.077 ± 0.032
[3]; female Ces2^–/– mice
  AUC0-2h: 30434 ± 12950 ng·h/mL
  AUC0-2h ratio (metabolite/capecitabine): 1.0 ± 0.9
  Cmax: 22886 ± 11936 ng/mL
  Tmax: 38.4 ± 14.4 min
[3]; female Ces2^–/–A mice
  AUC0-2h: 29452 ± 10370 ng·h/mL
  AUC0-2h ratio (metabolite/capecitabine): 1.1 ± 0.3
  Cmax: 21100 ± 8366 ng/mL
  Tmax: 34.8 ± 12 min
[3]; female Ces2^–/–V mice
  AUC0-2h: 34477 ± 13143 ng·h/mL
  AUC0-2h ratio (metabolite/capecitabine): 2.1 ± 0.4***^###^^^
  Cmax: 23871 ± 8673 ng/mL
  Tmax: 47.4 ± 16.2 min
[3]; female wild-type mice
  AUC0-2h: 27337 ± 6291 ng·h/mL
  AUC0-2h ratio (metabolite/capecitabine): 4.7 ± 0.9
  Cmax: 21133 ± 7207 ng/mL
  Tmax: 25.2 ± 7.8 min

From article PMC11845761, “Intestinal human carboxylesterase 2 (CES2) expression rescues drug metabolism and most metabolic syndrome phenotypes in global Ces2 cluster knockout mice” (Acta Pharmacologica Sinica, 2024)
